These results are taken from PMC10415494, “Ga(III) pyridinecarboxylate complexes: potential analogues of the second generation of therapeutic Ga(III) complexes?” (Journal of Biological Inorganic Chemistry, 2023).

One series deals with HepG2 cells. Set-up: method as in PMID 16827101. As to conditions: after 6 days of treatment; read-out: antiproliferative effect IC50; cited from earlier work.
The subject of series [1] is cancer cell lines (A2780, MDA-MB-231, HCT116). Set-up: method as in PMID 32354569. As to conditions: cited from earlier work.
In series [2] the test system is Pseudomonas aeruginosa (P. aeruginosa) CCM 1959. In words: Antimicrobial activity, macrodilution method (growth by A590). Type of series: cell-based. Conditions: for IC50: Bacteria, MHB, 37 °C, DMSO max 1.0 vol. %, read-out: IC50 P. aeruginosa; for MIC100 (MIC) P. aeruginosa: growth fully inhibited (100%). Here is the method:
(§1) The antimicrobial activities of gallium(III) complexes GaPic, GaDpic, GaChel, GaCldpic, free ligands (HPic, H2Dpic, H2Chel, H2Cldpic) and positive controls (cefoxitin (C), ampicillin (A) and piperacillin (P)) were evaluated by macrodilution method using G^+ bacteria (Firmicutes) Staphylococcus aureus (S. aureus) CCM 3953 (Czech Collection of Microorganisms), G^− bacteria (γ-proteobacteria) Escherichia coli (E. coli) CCM 3988, Pseudomonas aeruginosa (P. aeruginosa) CCM 1959 (Czech Collection of Microorganisms) and the yeast Candida parapsilosis (C. parapsilosis) ATCC 22019 (American type culture collection). Cultures of bacteria (in Mueller–Hinton broth, MHB) and yeasts (in Sabouraud’s growth medium, SB) were incubated under shaking (250 rpm) at 37 °C. The growth of bacteria and yeasts was evaluated by measuring the absorbance of the growing cultures (A590) until the cultures reached the stationary growth phase. The effects of gallium(III) complexes on the growth of filamentous fungi Rhizopus oryzae (R. oryzae) CCM F-8284, Alternaria alternata (A. alternata) CCM F-128 and Microsporum gypseum (M. gypseum) CCM F-8342 (Czech Collection of Microorganisms) were observed by macrodilution method on solidified potato-dextrose growth medium (PDA). During culturing, the diameters of growing fungal colonies were measured at regular intervals. Briefly, the antimicrobial activity (bacteria and yeasts) gallium(III) complexes/ ligands were added to the microbial culture at the beginning of the cultivation-to the lag phase. Pure gallium(III) complexes/ligands were dissolved in DMSO. The final concentration of DMSO never exceeded 1.0 vol. % neither in control nor treated samples. Concentration of gallium(III) complexes used in experimental work for evaluation of antimicrobial activity was used in the range of 0.05–2 mM, for the free ligands in the range of 0.5–2.0 mM in all experiments. […] The IC50 values were evaluated from toxicity curves. All the obtained results of antimicrobial activity were compared to the activity of Ga(NO3)3.

The subject of series [3] is Escherichia coli (E. coli) CCM 3988. Described as above. Format: cell-based. Conditions: for IC50: Bacteria, MHB, 37 °C, DMSO max 1.0 vol. %, read-out: IC50 E. coli. Here is the method:
as §1

Series [4] relates to Staphylococcus aureus (S. aureus) CCM 3953. Described as above. Format: cell-based. Conditions: for IC50: Bacteria, MHB, 37 °C, DMSO max 1.0 vol. %, read-out: IC50 S. aureus. Here is the method:
as §1

Series [5] relates to A2058 (human metastatic melanoma). In words: MTS antiproliferative assay. Here is the method:
(§2) Cell culture the cell lines A2058 (human metastatic melanoma), BLM (human metastatic melanoma), HCT116 (human colorectal carcinoma), HeLa (human cervical adenocarcinoma), Jurkat (human leukaemic T cell lymphoma). […] Cells were maintained in standard conditions with an atmosphere containing 5% CO2 at 37 °C.
(§3) The antiproliferative activity of Ga(III) complexes GaPic, GaDpic, GaChel, GaCldpic, free ligands (HPic, H2Dpic, H2Chel, H2Cldpic) and cisplatin (cisPt) were evaluated by colorimetric microculture MTS (3-(4,5-dimethylthiazol-2-yl)-5-(3-carboxymethoxyphenyl)-2-(4-sulfophenyl)-2H tetrazolium) assay (Promega, Madison, WI, USA). Cancer and non-cancer cells were seeded at density 5 × 10^3 cells/well in 96-well polystyrene microplates. Twenty-four hours after cell seeding, different concentrations (1.0—100.0 µM) of the compounds were tested. After 72 h of incubation, 10 µL of MTS was added to each well. After an additional 2 h, cell proliferation was evaluated by measuring of absorbance at wavelength 490 nm using the automated Cytation™ 3 Cell Imaging Multi-Mode Reader (Biotek, Winooski, VT, USA). The absorbance of control wells was taken as 100%, and the results were expressed as a percent of untreated control. IC50 values were calculated from MTS analyses.
(In general: Tetrazolium assays rely on reduction of a dye to a coloured formazan, in cell work by metabolically active cells.)

The test system of series [6] is PaTu 8902 (human pancreatic adenocarcinoma). In words: MTS antiproliferative assay. Here is the method:
as §2, §3

Series [7] has as its system Jurkat (human leukaemic T cell lymphoma). In words: MTS antiproliferative assay. Here is the method:
as §2, §3

Series [8] has as its system MDA-MB-231 (human mammary gland adenocarcinoma). Kind of series: MTS antiproliferative assay. Here is the method:
as §2, §3

The test system of series [9] is HCT116 (human colorectal carcinoma). In words: MTS antiproliferative assay. Here is the method:
as §2, §3

Series [10] has as its system HeLa (human cervical adenocarcinoma). Kind of series: MTS antiproliferative assay. Here is the method:
as §2, §3

Series [11] can be described thus: Complex stability in biological testing medium by time-dependent 1H NMR. Format: physicochemical. As to conditions: 300 K, over 96 h. Here is the method:
Nuclear magnetic resonance (NMR) data were collected on a Varian VNMRS 600 spectrometer operating at 599.87 MHz for ^1H. The concentration of all samples was approximately 3 mg/0.6 mL of 1% DMSO-d6/D2O. For comparison, the spectra of pure acids were also measured, while the pH of the solution of acids was adjusted to the same value as the solution of the complexes. The chemical shifts were referenced to the TSP (3-(trimethylsilyl)propionic-2,2,3,3-d4 acid sodium salt) peak (^1H NMR 0.00 ppm). The NMR data were recorded at 300 K, with chemical shifts δ reported in parts per million and coupling constants J in Hertz. All data were analysed using MestReNova 12.0.0 (2017) software. The stability in 1% DMSO-d6/D2O was determined for all samples. […]

Series [12] relates to HepG2 (human liver cancer cell line). Kind of series: MTT cell viability test. Format: cell-based. Conditions: 100 μM, after 48 h. Here is the method:
Prior to each experiment, cell viability was determined using an automated cell counter (Countess II FL, Thermo Fisher Scientific, USA). 50 μl of the HepG2 cell suspension was transferred into new tube and 12.5 μl of trypan blue was added. After one minute, 10 μl was taken from the prepared suspension to determine the number of viable cells in 1 ml. The automated cell counter determined the total number of viable cells and the percentage of viability. […] Cells (2 × 10^4/200 μl) were incubated in 96-well microtiter plates for 24 and 48 h in the presence of metal complexes, picolinic acid, and gallium(III) nitrate, at 37 °C in humified atmosphere with 5% CO2. The cells were centrifuged for 10 min at 2500 rpm and 20 °C, supernatant was removed and 180 μl of fresh serum-free medium was added. Then 10 μl of MTT solution with a concentration of 5 mg/ml was added and cells were incubated for next 2–3 h in the dark until a precipitate formed. After centrifugation and removal of supernatant 150 μl of DMSO was added to the cells to dissolve the precipitate. Absorbance at 540 nm was measured using a spectrophotometer.

For series [13], the system named is human dermal fibroblasts (HDF). Kind of series: in vitro. Here is the method:
as §2, §3

Series [14] deals with Candida parapsilosis (C. parapsilosis) ATCC 22019. In words: Antimicrobial activity, macrodilution method (yeast, growth by A590). Format: cell-based. As to conditions: Yeast; Sabouraud's growth medium, 37 °C; read-out: IC50 C. parapsilosis. Here is the method: as §1
Series [15] relates to Rhizopus oryzae (R. oryzae) CCM F-8284. Kind of series: Growth of filamentous fungi, macrodilution method on solidified PDA (colony diameter). Format: cell-based. Conditions: solidified potato-dextrose growth medium; read-out: IC50 R. oryzae. Here is the method:
as §1

Series [16] relates to Alternaria alternata (A. alternata) CCM F-128. The series is described as above. Type of series: cell-based. As to conditions: Filamentous fungi; solidified potato-dextrose growth medium; read-out: IC50 A. alternata. Here is the method: as §1
Series [17] deals with Microsporum gypseum (M. gypseum) CCM F-8342. Described as above. Conditions: Filamentous fungi; solidified potato-dextrose growth medium; read-out: IC50 M. gypseum. Type of series: cell-based. Here is the method: as §1
In series [18] the target is T1, bovine serum albumin (BSA) (Bos taurus, UniProt P02769).
T1 construct: purchased Sigma-Aldrich Chemicals
In words: BSA fluorescence quenching (Stern-Volmer). Format: binding. Conditions: 0.01 M PBS buffer pH 7.4, 25 °C, λex = 280 nm. Here is the method:
Fluorescence measurements were carried out on a Varian Cary Eclipse spectrofluorometer. The quenching studies of BSA with the Ga(III) complexes were investigated to determine whether they were able to quench fluorescence of BSA. All measurements were performed at 25 °C in 0.01 M PBS buffer (pH 7.4). The fluorescence spectra were measured at an excitation wavelength of 280 nm, with a slit width of 10 nm for the excitation and emission beams, in the range of 300–450 nm and analysed according to the classical Stern–Volmer Equation: F0/F=1+KSVQ where F0 and F are the fluorescence intensities in the absence and the presence of the quencher, respectively, KSV is the Stern–Volmer constant, and [Q] is the concentration of quencher.

The conditions of series [19]: cited from earlier work.
A further series is described as follows: Solubility (qualitative). Type of series: physicochemical.
On the set-up of series [20]: method as in doi:10.1002/hlca.19600430611. As to conditions: cited from earlier work.

T1 sequence (P02769 25-607): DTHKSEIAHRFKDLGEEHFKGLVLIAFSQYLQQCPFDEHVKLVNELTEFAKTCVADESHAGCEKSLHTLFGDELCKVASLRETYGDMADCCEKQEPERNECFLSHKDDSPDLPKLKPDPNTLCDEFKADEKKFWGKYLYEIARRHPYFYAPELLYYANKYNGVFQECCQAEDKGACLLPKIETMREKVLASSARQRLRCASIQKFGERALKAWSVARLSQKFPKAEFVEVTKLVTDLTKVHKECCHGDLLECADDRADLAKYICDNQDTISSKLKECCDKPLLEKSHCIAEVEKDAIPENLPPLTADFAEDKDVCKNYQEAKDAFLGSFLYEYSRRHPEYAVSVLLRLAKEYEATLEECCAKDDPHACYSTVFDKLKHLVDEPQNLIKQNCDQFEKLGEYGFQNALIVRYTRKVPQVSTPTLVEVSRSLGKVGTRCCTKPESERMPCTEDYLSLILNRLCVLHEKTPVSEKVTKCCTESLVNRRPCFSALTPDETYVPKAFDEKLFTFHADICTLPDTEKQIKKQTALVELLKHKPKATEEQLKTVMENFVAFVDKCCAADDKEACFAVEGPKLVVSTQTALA

Take `Cc1occc(=O)c1[O-].Cc1occc(=O)c1[O-].Cc1occc(=O)c1[O-].[Ga+3]` [GaM, Ga(III) maltolate]: the IC50 with HepG2 cells was 25 to 35 µM.

Turning to `CO.[Ga+3].[O-]c1ccc(Cl)c2cccnc12.[O-]c1ccc(Cl)c2cccnc12.[O-]c1ccc(Cl)c2cccnc12` [[Ga(ClQ)3]⋅MeOH], in series [1], the “activity of the Ga(III) complex relative to the activity of H-ClQ” value was “at least 2.5 times”.

Take `O.O=C([O-])c1ccccn1.O=C([O-])c1ccccn1.O=C([O-])c1ccccn1.[Ga+3]` [GaPic, [Ga(Pic)3]·H2O]: the 50% inhibitory concentration (IC50) was 50 µM in [2]; greater than 2000 µM in series [3]; 2000 µM in series [4]; 187 ± 12.2 µM in series [5]; 271 ± 34.3 µM in [6]; 175 ± 47.7 µM in [7]. The IC50 in [8] is 152 ± 74.3 µM; in series [9], 995 ± 27.5 µM; in series [10], 1530 ± 108 µM; in [13], 231 ± 23.8 µM; in series [14] it was greater than 2000 µM; in [15], greater than 2000 µM. Also, the IC50 in series [16] and in series [17] was greater than 2000 µM throughout. In addition, in [2], the “MIC100 (MIC) P. aeruginosa” value was determined as 500 µM. The “inhibition of S. aureus growth” value in series [4] (complex at 2 mM) is on record as 50%. The “stability in 1% DMSO-d6/D2O solution” value in [11] is listed as “does not decompose”. Also, in [12], the “decrease in cell viability of HepG2” value worked out at 28%. Besides, in series [18], the “Stern–Volmer binding constant Ksv BSA” value stood at 46700 M⁻¹.

Turning to `O=C(O)c1cccnc1` [nicotinic, nicotinic acid], in series [19], the “dissociation constant pK2” value is recorded as 4.66.

As to `O.O.O=C([O-])c1cc(Cl)cc(C(=O)[O-])n1.O=C([O-])c1cc(Cl)cc(C(=O)[O-])n1.[Ga+3].[Ga+3].[OH-].[OH-]` [GaCldpic, [Ga(Cldpic)(H2O)(OH)]2], the IC50 was 50 µM in series [2]; greater than 2000 µM in [3]; greater than 2000 µM in [4]; 294 ± 57.5 µM in [5]; 437 ± 22.6 µM in [6]; 405 ± 87 µM in series [7]. Moreover, the half-inhibitory concentration (IC50) was 271 ± 68.3 µM in [8]; 404 ± 47.7 µM in series [9]; 447 ± 134 µM in series [10]; 447 ± 27.6 µM in series [13]; greater than 2000 µM in series [14]; greater than 2000 µM in series [15]. Also, the IC50 in series [16] and in series [17] was greater than 2000 µM throughout. Moreover, the “MIC100 (MIC) P. aeruginosa” value in [2] came to 500 µM. For the same compound, in [3] (concentration not given), the “partial inhibition of E. coli growth” value worked out at 30%. Besides, in “Solubility (qualitative)”, the solubility in ethanol result was “slightly soluble”. Besides, the “stability in 1% DMSO-d6/D2O solution” value in series [11] is listed as “stable”.

In the case of Fe(Dpic)2, in [20], the “stability constant logβ021” value is listed as 17.13.

The term IC50 denotes the concentration that inhibits the measured activity by half.
